What was measured:
Conditions in all cases: incubation time: 72 h
[1] = system: BT-474; assay: drug sensitivity score (DSS), CellTiter-Glo (DSS (AUC-based score)); higher = stronger drug effect (viability inhibition or cytotoxicity); extreme values may be limits of the assay
Outline: (§1)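 Normalisation on every plate relied on 0.1 % DMSO and a positive kill control. The plates, 384-well format, held compound at 5 concentrations 10-fold apart across a compound-specific 10,000-fold range, and breast cancer cell lines in 20 µl suspension were incubated on them for 72 h before CellTox Green and then CellTiter-Glo readings. The drug sensitivity score derives from the area under the fitted dose-response curve.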

[2] = system: BT-549; assay: as above
Outline: as §1

[3] = system: CAL-120; assay: as above
Outline: as §1

[4] = system: CAL-148; assay: as above
Outline: as §1

[5] = system: CAL-51; assay: as above
Outline: as §1

[6] = system: CAL-85-1; assay: as above
Outline: as §1

[7] = system: DU-4475; assay: as above
Outline: as §1

[8] = system: HCC1143; assay: as above
Outline: as §1

[9] = system: HCC1599; assay: as above
Outline: as §1

[10] = system: HCC1937; assay: as above
Outline: as §1

[11] = system: HDQ-P1; assay: as above
Outline: as §1

[12] = system: Hs578T; assay: as above
Outline: as §1

[13] = system: MCF-10A; assay: as above
Outline: as §1

[14] = system: MDA-MB-231; assay: as above
Outline: as §1

[15] = system: MDA-MB-436; assay: as above
Outline: as §1

[16] = system: MDA-MB-453; assay: as above
Outline: as §1

[17] = system: MDA-MB-468; assay: as above
Outline: as §1

[18] = system: MFM-223; assay: as above
Outline: as §1

[19] = system: SK-BR-3; assay: as above
Outline: as §1

[20] = system: CAL-148; assay: normalised response (% of control), CellTox Green; higher = less cell death (100 = DMSO, 0 = benzethonium chloride kill control)
Outline: (§2)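 Plates were normalised with 0.1 % DMSO as 100 and a positive kill control as 0. Breast cancer cell lines in 20 µl suspension had been seeded into 384-well plates with compound at 5 concentrations in 10-fold steps over a compound-specific 10,000-fold range, incubated 72 h, and read for CellTox Green fluorescence (485/520 nm) followed by CellTiter-Glo luminescence. Each value is the normalised signal at a single concentration.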

[21] = system: MFM-223; assay: as above
Outline: as §2

| Structure (SMILES) | normalised response [20] [%] | normalised response [21] [%] | further results |
| --- | --- | --- | --- |
| Cc1c(Cn2c(C)nc3c(C(=O)O)cc(N4CCOCC4)cc32)cccc1C(F)(F)F | – | – | drug sensitivity score [1]: 0; drug sensitivity score [2]: 3.9; drug sensitivity score [3]: 0; drug sensitivity score [4]: 0; drug sensitivity score [5]: 12.3; drug sensitivity score [6]: 0; drug sensitivity score [7]: 0; drug sensitivity score [8]: 0; drug sensitivity score [9]: 0; drug sensitivity score [10]: 0; drug sensitivity score [11]: 0; drug sensitivity score [12]: 0; drug sensitivity score [13]: 0; drug sensitivity score [14]: 0; drug sensitivity score [15]: 0.153; drug sensitivity score [16]: 0; drug sensitivity score [17]: 3.65; drug sensitivity score [18]: 0; drug sensitivity score [19]: 0 |
| COc1ccc(-c2cc3c(C)nc(N)nc3n([C@H]3CC[C@H](OCCO)CC3)c2=O)cn1 (1000 nM) | 51.2 | 81 | – |
| COc1ccc(-c2cc3c(C)nc(N)nc3n([C@H]3CC[C@H](OCCO)CC3)c2=O)cn1 (10000 nM) | -9.66 | 52.8 | – |
| O=C(Nc1c[nH]nc1-c1nc2ccc(CN3CCOCC3)cc2[nH]1)NC1CC1 [AT9283] (1000 nM) | 83.9 | 75 | – |
| COc1cc(CCc2cc(NC(=O)c3ccc(N4CC(C)NC(C)C4)cc3)n[nH]2)cc(OC)c1 (configuration not stated) [AZD4547] (100 nM) | 101 | 97.4 | – |
| COc1cc(CCc2cc(NC(=O)c3ccc(N4CC(C)NC(C)C4)cc3)n[nH]2)cc(OC)c1 (configuration not stated) [AZD4547] (1000 nM) | 57.8 | 95.5 | – |
| CCC/C=C/C=C/C(=O)O[C@H]1/C(=C/C(=O)OC)C[C@H]2C[C@H]([C@@H](C)O)OC(=O)C[C@H](O)C[C@@H]3C[C@H](OC(C)=O)C(C)(C)[C@](O)(C[C@@H]4C/C(=C/C(=O)OC)C[C@H](/C=C/C(C)(C)[C@]1(O)O2)O4)O3 [Bryostatin 1] (10 nM) | 108 | 88 | – |
| CCC/C=C/C=C/C(=O)O[C@H]1/C(=C/C(=O)OC)C[C@H]2C[C@H]([C@@H](C)O)OC(=O)C[C@H](O)C[C@@H]3C[C@H](OC(C)=O)C(C)(C)[C@](O)(C[C@@H]4C/C(=C/C(=O)OC)C[C@H](/C=C/C(C)(C)[C@]1(O)O2)O4)O3 [Bryostatin 1] (100 nM) | 105 | 104 | – |
| CO[C@@H](C(=O)N1Cc2[nH]nc(NC(=O)c3ccc(N4CCN(C)CC4)cc3)c2C1)c1ccccc1 [Danusertib] (1000 nM) | 45.1 | 92.9 | – |
| CO[C@@H](C(=O)N1Cc2[nH]nc(NC(=O)c3ccc(N4CCN(C)CC4)cc3)c2C1)c1ccccc1 [Danusertib] (10000 nM) | 90.5 | 94.9 | – |
| Cc1nc(Nc2ncc(C(=O)Nc3c(C)cccc3Cl)s2)cc(N2CCN(CCO)CC2)n1 [Dasatinib] (100 nM) | 98.8 | 91.5 | – |
| Cc1nc(Nc2ncc(C(=O)Nc3c(C)cccc3Cl)s2)cc(N2CCN(CCO)CC2)n1 [Dasatinib] (1000 nM) | 104 | – | – |
| Cc1c(CN2CCN(C(=O)[C@H](C)O)CC2)sc2c(N3CCOCC3)nc(-c3cnc(N)nc3)nc12 [GDC-0980] (1000 nM) | 68.3 | 76.5 | – |

— the supplement of paper PMC4862054
